For 14 compounds, Ki results are on record in patent US6977263B2, “Chemical compounds” (Aventis Pharmaceuticals Inc., priority 2000, dated 2005).

Each structure is given as a SMILES string. Counter-ions that a name gives are not always drawn.

The experiment concerns the target T1, recombinant human β tryptase (Homo sapiens, UniProt Q15661).
T1 construct: made in house; host or cells: yeast cells
The experiment can be described thus: Tryptase chromogenic enzyme assay (S2366 substrate), Ki determination. In kind it is biochemical. The conditions noted are these: room temperature, 0.5 mM S2366 substrate (2×Km), read at 405 nm; Ki=IC50/(1+[Substrate]/Km). The method, then: Tryptase inhibition activity is confirmed using either isolated human lung tryptase or recombinant human β tryptase expressed in yeast cells. Essentially equivalent results are obtained using isolated native enzyme or the expressed enzyme. The assay procedure employs a 96 well microplate (Costar 3590) using L-pyroglutamyl-L-prolyl-L-arginine-para-nitroanilide (S2366: Quadratech) as substrate (essentially as described by McEuen et. al. Biochem Pharm, 1996, 52, pages 331-340). Assays are performed at room temperature using 0.5 mM substrate (2×Km) and the microplate is read on a microplate reader (Beckman Biomek Plate reader) at 405 nm wavelength. It was determined using the procedure set forth herein.
Materials and Methods for Tryptase Primary Screen (Chromogenic Assay)
S2366 (Stock solutions of 2.5 mM).
Purified recombinant beta Tryptase Stocks of 310 ug/ml.
• Add 60 ul of diluted substrate (final concentration of 500 uM in assay buffer) to each well • Add compound in duplicates, final concentration of 20 uM, volume 20 ul • Add enzyme at a final concentration of 50 ng/ml in a volume of 20 ul • Total volume for each well is 100 ul • Agitate briefly to mix and incubate at room temp in the dark for 30 minutes • Read absorbencies at […]
Each plate has the following controls • Totals: 60 ul of substrate, 20 ul of buffer (with 0.2% final concentration of DMSO), 20 ul of enzyme • Non-specific: 60 ul of substrate, 40 ul of buffer (with 0.2% DMSO) • Totals: 60 ul of substrate, 20 ul of buffer (No DMSO), 20 ul of enzyme • Non-specific: 60 ul of substrate, 40 ul of buffer (No DMSO) Protocol (IC50 and Ki Determination)
The protocol is essentially the same as above except that the compound is added in duplicates at the following final concentrations: 0.01, 0.03, 0.1, 0.3, 1, 3, 10 uM (All dilutions carried out manually). For every assay, whether single point or IC50 determination, a standard compound is used to derive IC50 for comparison. From the IC 50 value, the Ki can be calculated using the following formula: Ki=IC50/(1+[Substrate]/Km).

For orientation: Ki means a dissociation constant, usually derived from enzyme kinetics or from competition with a known ligand.

T1 sequence (Q15661 31-275): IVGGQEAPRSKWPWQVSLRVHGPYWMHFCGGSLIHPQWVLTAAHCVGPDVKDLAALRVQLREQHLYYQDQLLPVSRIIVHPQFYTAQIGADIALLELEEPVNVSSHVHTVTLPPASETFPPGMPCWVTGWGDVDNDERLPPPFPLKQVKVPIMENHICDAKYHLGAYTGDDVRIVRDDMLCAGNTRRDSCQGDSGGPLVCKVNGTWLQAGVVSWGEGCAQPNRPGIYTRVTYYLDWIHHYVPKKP

Consider `NCc1cccc(C2CCN(C(=O)c3ccc(CCc4ccccc4)s3)CC2)c1` [Example 13, 3-[1-(5-Phenylethyl-thiophene-2-carbonyl)-piperidin-4-yl]-benzylamine hydrochloride], for which the Ki turned out to be 50 nM. In the case of `NCc1cccc(C2CCN(C(=O)c3cccc(COc4ccccc4)c3)CC2)c1` [Example 15, 3-[1-(3-Phenoxymethyl-benzoyl)-piperidin-4-yl]-benzylamine hydrochloride], the Ki worked out at 1070 nM.

As to `Cc1ccc(CN)cc1C1CCN(C(=O)c2cncc(CCc3ccccc3)c2)CC1` [Example 18, 4-Methyl-3-[1-(5-phenylethyl-pyridine-3-carbonyl)-piperidin-4-yl]-benzylamine di-hydrochloride], the inhibitory constant (Ki) was 69 nM. Consider `NCc1cccc(C2CCN(C(=O)c3cccc(-c4nnc(-c5ccccc5)o4)c3)CC2)c1` [Example 19, 3-{1-[3-(5-Phenyl-1,3,4-oxadiazol-2-yl)-phenylcarbonyl]-piperidin-4-yl}-benzylamine hydrochloride], for which the Ki worked out at 180 nM. Turning to `N#CC1(c2cccc(CN)c2)CCN(C(=O)c2cncc(CCc3ccccc3)c2)CC1` [Example 35, 4-(3-Aminomethyl-phenyl)-1-(5-phenethyl-pyridine-3-carbonyl)-piperidine-4-carbonitrile], the Ki came out at 93 nM. To `NCc1cccc(C2CCN(C(=O)c3ccc(Cl)c(Cl)c3)CC2)c1` [Example 36, [4-(3-Aminomethylphenyl)piperidin-1-yl]-(3,4-dichlorophenyl)methanone trifluoroacetate] belongs 31 nM; to `NCc1cccc(C2CCN(C(=O)c3ccc(Cl)cc3)CC2)c1` [Example 48, 1-[4-(3-Aminomethyl-phenyl)-piperidin-1-yl]-1-(4-chloro-phenyl)-methanone trifluoroacetate], 390 nM; to `NCc1cccc(C2CCN(C(=O)c3cccc(-c4nnc(-c5ccccc5Cl)o4)c3)CC2)c1` [Example 49, 1-[4-(3-Aminomethyl-phenyl)-piperidin-1-yl]-1-{3-[5-(2-chloro-phenyl)-[1,3,4]oxadiazol-2-yl]-phenyl}-methanone trifluoroacetate], 390 nM. To `NCc1cccc(C2CCN(C(=O)c3scc4c3CCCC4)CC2)c1` [Example 70, 1-[4-(3-Aminomethyl-phenyl)-piperidin-1-yl]-1-(4,5,6,7-tetrahydro-benzo[c]thiophen-1-yl)-methanone-trifluoroacetate] belongs 290 nM; to `NCc1cccc(C2CCN(C(=O)c3cccc(C#Cc4ccc(F)cc4)c3)CC2)c1` [Example 83, 1-[4-(3-Aminomethyl-phenyl)-piperidin-1-yl]-1-[3-(4-fluoro-phenylethynyl)-phenyl]-methanone trifluoroacetate], 870 nM. For `NCc1cccc(C2CCN(C(=O)c3cc4sc(Cl)cc4s3)CC2)c1` [Example 92, 1-[4-(3-Aminomethyl-phenyl)-piperidin-1-yl]-1-(5-chloro-thieno[3,2-b]thiophen-2-yl)-methanone trifluoroacetate] the value was 190 nM; for `NCc1cccc(C2CCN(C(=O)c3ccc(CCc4ccccc4)cc3)CC2)c1` [Example 97, 1-[4-(3-Aminomethylphenyl)-piperidin-1-yl]-1-(4-phenylethyl-phenyl)-methanone hydrochloride], 450 nM. Turning to `NCc1cccc(C2CCN(C(=O)c3cccc(CCc4ccccc4O)c3)CC2)c1` [Example 98, 1-[4-(3-Aminomethyl-phenyl)-piperidin-1-yl]-1-{3-[2-(2-hydroxy-phenyl)-ethyl]-phenyl}-methanone hydrochloride], the Ki turned out to be 180 nM. For `NCc1cc(C2CCN(C(=O)c3cncc(CCc4ccccc4)c3)CC2)cs1` [Example 100, dihydrochloride] the value was 490 nM.
